# Data taken from PMC3875372 (Biochemistry, 2013).
# Tests used:
# [1] = standards; 2-aminopyridine λex 295 nm, anthracene λex 340 nm; cited from earlier work
# ecDHFR = conditions: cited from earlier work
# [2] = system: modified DHFRs (biphenyl-phenylalanines at position 115); test: Inhibition of the modified DHFRs; type: biochemical, E. coli; conditions: all four DHFRs modified at position 115
molecule,measurement,setting,value
c1ccc2cc3ccccc3cc2c1 [anthracene],ΦF of quantum yield standard,[1],0.27
Nc1ccccn1 [2-aminopyridine],ΦF of quantum yield standard,[1],0.60
L-(7-hydroxycoumarin-4-yl)ethylglycine,rate of NADPH consumption relative to wild type,ecDHFR; position 115 of ecDHFR,about 25%
4-biphenyl-L-phenylalanine,effect on the rate at which ecDHFR consumed NADPH,"ecDHFR; replacement of Ile115, in the presence of dihydrofolate",no significant effect
CN(Cc1cnc2nc(N)nc(N)c2n1)c1ccc(C(=O)N[C@@H](CCC(=O)O)C(=O)O)cc1 [methotrexate],inhibition of the modified enzymes compared with wild type,[2],about the same extent as wild type
